Assays:
aminopeptidase = experiment: Effect of chemical materials affecting enzyme activity of aminopeptidase; assay type: biochemical, Bacillus licheniformis
Experimental: (§1) In order to examine chemical materials affecting enzyme activity of aminopeptidase, enzyme activities of aminopeptidase treated for 2 hours with dithiotreitol, iodoacetic acid, ortho-phenanthroline and EDTA as 1, 5 and 20 mMJ respectively were measured.

[1] = target: T1, aminopeptidase of Bacillus licheniformis ATCC 12759 (N-terminal sequence SEQ ID NO: 3) (Bacillus licheniformis, UniProt Q65DH7); experiment: Effect of chemical materials on aminopeptidase activity (2 h treatment, leucine-p-nitroanilide substrate); assay type: biochemical; details: treated 2 hours, 0 mM = 100, read-out: relative activity
T1 sequence (Q65DH7 43-449 limits assumed): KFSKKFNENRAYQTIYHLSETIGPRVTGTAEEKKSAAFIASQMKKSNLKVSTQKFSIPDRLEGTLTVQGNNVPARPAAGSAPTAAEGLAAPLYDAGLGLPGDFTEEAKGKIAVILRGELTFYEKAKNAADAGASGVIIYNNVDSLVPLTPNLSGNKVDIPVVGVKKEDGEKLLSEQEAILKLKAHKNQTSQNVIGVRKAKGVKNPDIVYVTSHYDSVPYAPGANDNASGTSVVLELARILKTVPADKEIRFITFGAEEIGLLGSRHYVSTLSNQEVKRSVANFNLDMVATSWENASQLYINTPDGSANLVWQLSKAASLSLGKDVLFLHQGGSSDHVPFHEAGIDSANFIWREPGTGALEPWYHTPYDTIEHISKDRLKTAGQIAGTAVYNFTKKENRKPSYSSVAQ
Experimental: Aminopeptidase activities of this invention were measured by the method of Pfleiderer (Pfleiderer, Meth. Enzymol., 19, 514-521, 1970). Precisely, 1 U of enzyme activity defines the enzyme quantity changing 1 absorbance at 405 nm which is measured by the process adding aminopeptidase in 1 ml solution of […] Tris-Cl (pH 8.0) and 2 mM leucine-p-nitroanilide (Sigma, USA), incubating at 37° C. for 1 min, then adding 100 μl of 70% acetic acid to stop the reaction. At that time leucine-p-nitroanilide was dissolved in dimethylsulfoxide (DMSO) to make 100 mM solution.
as §1

[2] = Moore, Endocrinology 1988; cited from earlier work
[3] = aminopeptidase treated for 2 hours with 1 mM chemical
[4] = aminopeptidase treated for 2 hours with 5 mM chemical
[5] = aminopeptidase treated for 2 hours with 20 mM chemical

Row | Molecule | effect on aminopeptidase activity (in words) (aminopeptidase) | relative activity (%) (aminopeptidase; [3]) | relative activity (%) (aminopeptidase; [4]) | relative activity (%) (aminopeptidase; [5]) | activity at 1000 µM ([1]; pH 8, 1 mM chemical) [%] | activity at 5000 µM ([1]; pH 8, 5 mM chemical) [%] | activity at 20000 µM ([1]; pH 8, 20 mM chemical) [%] | biological activity compared with natural type HGH [2]
1 | O=C(O)CI [iodoacetic acid] | inhibited | 98.1 | 104.2 | 0 |  |  |  | 
2 | O=C(O)CN(CCN(CC(=O)O)CC(=O)O)CC(=O)O [EDTA, ethylenediaminetetraacetic acid] | inhibited partially | 93.8 | 83.4 | 66.3 |  |  |  | 
3 | O[C@H](CS)[C@H](O)CS (racemic) [dithiotreitol, dithiothreitol] | inhibited | 0.8 | 0 | 0 |  |  |  | 
4 | c1cnc2c(c1)ccc1cccnc12 [ortho-penanthroline, ortho-phenanthroline] | inhibited | 91.9 | 86.8 | 4.7 | 91.9 | 86.8 | 4.7 | 
5 | methionyl HGH: recombinant human growth hormone of 192 amino acids with Met-Phe-Pro-Thr sequence at the N-terminus |  |  |  |  |  |  |  | the same activity with that of natural type HGH

Reference: patent publication US6428997B1, “Aminopeptidase derived from Bacillus licheniformis and process for preparation of natural type proteins” (LG Chemical Ltd., priority 1997, dated 2002)
